Columns and labels:
[1] = test system: methylcrotonyl-CoA carboxylase; test: Elution of purine-binding proteins from ATP-Sepharose column with the compound; design: species or system porcine liver, porcine lidney, HeLa cells, whole mice; conditions: lysate on ATP-Sepharose; methotrexate 10 nM to 500 μM; SDS gel, silver stain, MALDI
Protocol: (§1) Molecular targets for the folate antagonist methotrexate were identified as follows. Cell or tissue lysates were produced from porcine liver, porcine lidney, HeLa cells, and whole mice. This lysate was run over an ATP-Sepharose™ column in order to extract all purine-binding proteins. […] The ATP-Sepharose™ washed several times, and then eluted with methotrexate at concentrations ranging from 10 nM to 500 μM to identify proteins that bound to this compound. The eluted fractions were run on a 1-dimensional SDS polyacrylamide gel. The eluted proteins were then stained with silver stain, cut out of the gel, and identified using matrix-assisted laser deionization/ionization (MALDI).

glutathione synthase = test: as above; design: species or system porcine liver, porcine lidney, HeLa cells, whole mice; conditions: lysate on ATP-Sepharose; methotrexate 10 nM to 500 μM; SDS gel, silver stain, MALDI
Protocol: (§2) Molecular targets for the folate antagonist methotrexate were identified as follows. Cell or tissue lysates were produced from porcine liver, porcine lidney, HeLa cells, and whole mice. This lysate was run over an ATP-Sepharose™ column in order to extract all purine-binding proteins. […] The ATP-Sepharose™ washed several times, and then eluted with methotrexate at concentrations ranging from 10 nM to 500 μM to identify proteins that bound to this compound. The eluted fractions were run on a 1-dimensional SDS polyacrylamide gel. The eluted proteins were then stained with silver stain, cut out of the gel, and identified using matrix-assisted laser deionization/ionization (MALDI). […] The experiment was also repeated using folate to elute the purine binding proteome from the ATP-Sepharose column.

pyruvate carboxylase = test: as above; design: species or system porcine liver, porcine lidney, HeLa cells, whole mice; conditions: lysate on ATP-Sepharose; methotrexate 10 nM to 500 μM; SDS gel, silver stain, MALDI
Protocol: as §2

acetyl-CoA carboxylase = test: as above; design: species or system porcine liver, porcine lidney, HeLa cells, whole mice; conditions: lysate on ATP-Sepharose; methotrexate 10 nM to 500 μM; SDS gel, silver stain, MALDI
Protocol: as §1

biotin carboxylase = test: as above; design: species or system porcine liver, porcine lidney, HeLa cells, whole mice; conditions: lysate on ATP-Sepharose; methotrexate 10 nM to 500 μM; SDS gel, silver stain, MALDI
Protocol: as §1

[2] = test system: propionyl-CoA carboxylase; test: as above; design: species or system porcine liver, porcine lidney, HeLa cells, whole mice; conditions: lysate on ATP-Sepharose; methotrexate 10 nM to 500 μM; SDS gel, silver stain, MALDI
Protocol: as §2

DHFR = test: as above; design: species or system porcine liver, porcine lidney, HeLa cells, whole mice; conditions: lysate on ATP-Sepharose; methotrexate 10 nM to 500 μM; SDS gel, silver stain, MALDI
Protocol: as §2

[3] = test system: the same proteins that were eluted from ATP-Sepharose with methotrexate; test: Elution of lysate proteins from methotrexate covalently linked to agarose; format: binding, porcine liver, porcine lidney, HeLa cells, whole mice; conditions: lysates applied to methotrexate covalently linked to agarose
Protocol: as §1

GART = test: Elution of purine-binding proteins from ATP-Sepharose column with the compound; conditions: lysate on ATP-Sepharose; methotrexate 10 nM to 500 μM; SDS gel, silver stain, MALDI
Protocol: as §2

CN(Cc1cnc2nc(N)nc(N)c2n1)c1ccc(C(=O)N[C@@H](CCC(=O)O)C(=O)O)cc1 [methotrexate]
methylcrotonyl-CoA carboxylase eluted from ATP-Sepharose by the compound (indicates binding) [1]: eluted | glutathione synthase eluted from ATP-Sepharose by the compound (indicates binding) (glutathione synthase): eluted | pyruvate carboxylase eluted from ATP-Sepharose by the compound (indicates binding) (pyruvate carboxylase): eluted | acetyl-CoA carboxylase eluted from ATP-Sepharose by the compound (indicates binding) (acetyl-CoA carboxylase): eluted | biotin carboxylase eluted from ATP-Sepharose by the compound (indicates binding) (biotin carboxylase): eluted | propionyl-CoA carboxylase eluted from ATP-Sepharose by the compound (indicates binding) [2]: eluted | DHFR eluted from ATP-Sepharose by the compound (indicates binding) (DHFR): eluted | same proteins eluted from methotrexate-agarose with methotrexate (confirmation of targets) [3]: also eluted from methotrexate agarose with methotrexate | GART eluted from ATP-Sepharose by the compound (indicates binding) (GART): eluted

Reference: US20070212690A1, “Folate Antagonists Having Improved Selectivity” (Serenex, Inc., priority 2003, published 2007)
